Source: publication PMC10743929, “Amphiphilic Sialic Acid Derivatives as Potential Dual-Specific Inhibitors of Influenza Hemagglutinin and Neuraminidase” (International Journal of Molecular Sciences, 2023)
Like-named read-outs stand apart in the source and are kept apart here. Marks after values point to notes of the source that are not given here.

Assays:
[1] = tested on: IAV (A/H1N1); assay: CPE reduction assay, influenza A/H1N1 in MDCK cells; type: cell-based, influenza A virus A/H1N1 (A/Virginia/ATCC3/2009 or A/PR/8); conditions: Influenza A virus, H1N1, 72 h
Method: (§1) The process of CPE reduction assay for the influenza virus was described previously. The virus strains were A/Virginia/ATCC3/2009, A/PR/8 (A/H1N1), A/Victoria/361/11, A/HK/7/87 (A/H3N2), and B/Ned/537/05 (IBV). On day 0, Madin-Darby canine kidney (MDCK) cells in 96-well plates were infected with influenza virus at a multiplicity of infection (MOI) of 0.0004 plaque forming units (PFU) per cell, and that was incubated at 35 °C for 3 days. After the third day, virus-induced CPE and compound cytotoxicity were scored by microscopy, and the data were confirmed by formazan-based MTS cell viability assay (CellTiter 96® AQueous One Solution Cell Proliferation Assay from Promega, Madison, WI, USA). […] Compound cytotoxicity was expressed as the concentration of the compound causing minimal changes in cell morphology (MCC) and 50% cytotoxic concentration (CC50) based on the MTS assay.

[2] = tested on: IBV; assay: CPE reduction assay, influenza B in MDCK cells; type: cell-based, influenza B virus (B/Ned/537/05); conditions: Influenza B virus, 72 h
Method: as §1

[3] = in vitro; conditions: dog
[4] = tested on: IAV (A/H3N2); assay: CPE reduction assay, influenza A/H3N2 in MDCK cells; type: cell-based, influenza A virus A/H3N2 (A/Victoria/361/11 or A/HK/7/87); conditions: Influenza A virus, H3N2, 72 h
Method: as §1

[5] = tested on: Madin-Darby canine kidney (MDCK) cells; conditions: dog, 3 days
[6] = tested on: influenza A strains; assay: Anti-influenza activity against influenza A strains (H1N1 and H3N2) in MDCK cells; type: cell-based, influenza A virus (H1N1 and H3N2 types); conditions: MDCK cells; H1N1 and H3N2
Method: as §1

[7] = molecular target: H3N2 Hemagglutinin (Influenza A virus, UniProt P03437); assay: SPR affinity toward immobilized H3N2 hemagglutinin; type: binding, influenza type H3N2 (A/Aichi/2/1968); conditions: for Kd: KD(app)
Method: (§2) SPR experiments were conducted using a BIAcore S200 instrument (Cytiva, Marlborough, MA, USA) employing a CM5 chip with a carboxymethyldextran surface (Cytiva, USA). Hemagglutinins (ThermoFisher Scientific, Invitrogen, Waltham, MA, USA) from influenza type H3N2 (A/Aichi/2/1968) and H1N1 (A/Puerto Rico/8/34), as well as neuraminidase (Invitrogen, USA) from H1N1 (A/California/04/2009), were immobilized on the chip surface following the standard amine coupling procedure outlined in the manufacturer’s instructions. This immobilization process was performed at a flow rate of 10 μL/min using PBST as the running buffer. The chip surface was initially activated using an N-ethyl-N-(3-dimethylaminopropyl)carbodiimide/N-hydroxysuccinimide solution. Subsequently, 50 μg/mL solutions of individual proteins in 10 mM sodium acetate, pH 5, were injected into channels 2, 3, and 4, respectively. To block any unreacted groups, all channels were treated with 1 M ethanolamine, resulting in a final response of 4500 RU for HAs and 2700 RU for neuraminidase. Channel 1 was activated and blocked in the same manner, without the injection of any protein, serving as a blank.
(§3) Tested compounds in a PBST working buffer (20 mM Na-phosphate, 150 mM NaCl, pH 7.4, 0.005% Tween 20, 5% DMSO) were injected into the chip at a flow rate of 30 μL/min at 25 °C. The injection duration was 3 min, followed by a 10 min buffer flow to facilitate spontaneous dissociation. Each compound was injected as a two-fold dilution series within a concentration range of 0.78–800 μM (2.44–2500 μM for sialic acid). After each compound concentration series, five buffer injections were performed to ensure complete dissociation. To determine the apparent KD toward the immobilized proteins, the steady-state responses of the blank-subtracted curves from each replicate were fitted using a single-site binding model.
(§4) In experiments conducted in a DMSO-free buffer (20 mM Na-phosphate, 150 mM NaCl, pH 7.4, 0.005% Tween 20), each replicate was followed by a two-fold dilution series of DMSO, matching the DMSO concentration in the compound solutions. In this case, the steady-state response of the blank-subtracted curve was corrected by the corresponding blank-subtracted DMSO steady-state response. The final values from each replicate were fitted using a single-site binding model using Origin 7 (OriginLab Corporation, Northampton, MA, USA).
(§5) For all experiments, the final KD(app) and Rmax values, along with their standard deviations, were obtained through statistical analysis based on three replicates.

[8] = molecular target: H1N1 Neuraminidase (Influenza A virus, UniProt C3W5S3); assay: SPR affinity toward immobilized H1N1 neuraminidase; type: binding, influenza H1N1 (A/California/04/2009); conditions: PBST with 5% DMSO, 25 °C
Method: as §2, §3, §5

[9] = molecular target: H1N1 Hemagglutinin (Influenza A virus, UniProt P03452); assay: SPR affinity toward immobilized H1N1 hemagglutinin; type: binding, influenza type H1N1 (A/Puerto Rico/8/34); conditions: for Kd: KD(app)
Sequence of H1N1 Hemagglutinin (P03452 18-565): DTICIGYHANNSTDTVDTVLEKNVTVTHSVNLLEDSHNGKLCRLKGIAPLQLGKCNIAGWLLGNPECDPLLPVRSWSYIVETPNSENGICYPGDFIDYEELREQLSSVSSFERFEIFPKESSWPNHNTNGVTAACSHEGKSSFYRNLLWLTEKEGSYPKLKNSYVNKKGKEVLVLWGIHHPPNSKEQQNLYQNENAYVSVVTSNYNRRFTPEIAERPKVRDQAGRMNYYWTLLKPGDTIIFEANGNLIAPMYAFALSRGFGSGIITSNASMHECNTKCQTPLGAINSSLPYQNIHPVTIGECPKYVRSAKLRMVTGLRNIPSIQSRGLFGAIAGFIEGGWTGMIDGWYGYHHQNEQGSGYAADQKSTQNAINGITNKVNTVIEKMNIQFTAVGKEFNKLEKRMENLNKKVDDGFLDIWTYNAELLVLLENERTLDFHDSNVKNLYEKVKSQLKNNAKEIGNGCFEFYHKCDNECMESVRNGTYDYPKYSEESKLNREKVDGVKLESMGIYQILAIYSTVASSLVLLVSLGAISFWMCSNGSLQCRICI
Method: as §2, §3, §4, §5

[10] = tested on: hemagglutinin; conditions: cited from earlier work
[11] = MTS cell viability assay, day 3, read-out: Antiviral EC50, IAV (A/H1N1), MTS
[12] = microscopic scoring of cytopathic effect, day 3, read-out: Antiviral EC50, IAV (A/H1N1), CPE
[13] = MTS cell viability assay, day 3, read-out: Antiviral EC50, IBV, MTS
[14] = microscopic scoring of cytopathic effect, day 3, read-out: Antiviral EC50, IBV, CPE
[15] = MTS cell viability assay, day 3, read-out: Antiviral EC50, IAV (A/H3N2), MTS
[16] = microscopic scoring of cytopathic effect, day 3, read-out: Antiviral EC50, IAV (A/H3N2), CPE

CCCCCCOCC1OC(CCCSC2(C(=O)O)CC(O)C(NC(C)=O)C(C(O)C(O)CO)O2)C=CC1OCCCCCC (centres unmarked) [Compound 18c]
EC50 [1, 11]: > 100 µM | EC50 [1, 12]: > 100 µM | EC50 [2, 13]: > 100 µM | EC50 [2, 14]: > 100 µM | CC50 [3]: > 100 µM | EC50 [4, 15]: > 100 µM | EC50 [4, 16]: > 100 µM | Cytotoxicity MCC (minimum cytotoxic concentration) [5]: 100 ^d µM

CCCCCCCCOCC1OC(OCCOCCOCCOCCOCCCSC2(C(=O)O)CC(O)C(NC(C)=O)C(C(O)C(O)CO)O2)C=CC1OCCCCCCCC (centres unmarked) [Compound 23a]
activity against influenza A strains (in words) [6]: no anti-influenza effect | EC50 [1, 11]: > 100 µM | EC50 [1, 12]: > 100 µM | Rmax, H3N2 hemagglutinin, absence of DMSO ([7]; DMSO-free running buffer): 200 ± 23 RU | Kd ([7]; H3N2 Hemagglutinin, PBST with 5% DMSO, 25 °C, steady-state single-site fit): 1220 ± 737 µM | Kd ([7]; H3N2 hemagglutinin, absence of DMSO, DMSO-free running buffer): 134 ± 48 µM | Rmax, H3N2 Hemagglutinin ([7]; PBST with 5% DMSO, 25 °C): 148 ± 43 RU | EC50 [2, 13]: > 100 µM | EC50 [2, 14]: > 100 µM | Rmax, H1N1 Neuraminidase [8]: 74 ± 13 RU | CC50 [3]: 54 µM | EC50 [4, 15]: > 100 µM | EC50 [4, 16]: > 100 µM | Cytotoxicity MCC (minimum cytotoxic concentration) [5]: 40 ^d µM | Rmax, H1N1 hemagglutinin, absence of DMSO ([9]; DMSO-free running buffer): 197 ± 24 RU | Kd ([9]; H1N1 Hemagglutinin, PBST with 5% DMSO, 25 °C, steady-state single-site fit): 6.22 ± 4.04 mM | Kd ([9]; H1N1 hemagglutinin, absence of DMSO, DMSO-free running buffer): 0.106 ± 0.036 mM | Rmax, H1N1 Hemagglutinin ([9]; PBST with 5% DMSO, 25 °C): 505 ± 275 RU

CCCCCCOCC1OC(OCCOCCOCCOCCOCCCSC2(C(=O)O)CC(O)C(NC(C)=O)C(C(O)C(O)CO)O2)C=CC1OCCCCCC (centres unmarked) [Compound 23b]
activity against influenza A strains (in words) [6]: ineffective | EC50 [1, 11]: > 100 µM | EC50 [1, 12]: > 100 µM | EC50 [2, 13]: > 100 µM | EC50 [2, 14]: > 100 µM | CC50 [3]: > 100 µM | EC50 [4, 15]: > 100 µM | EC50 [4, 16]: > 100 µM | Cytotoxicity MCC (minimum cytotoxic concentration) [5]: >100 µM

CO[C@]1(C(=O)O)C[C@H](O)[C@@H](NC(C)=O)[C@H]([C@H](O)[C@H](O)CO)O1 [Methyl α-glycoside of sialic acid]
binding to hemagglutinin (in words) [10]: bind weakly

NC(=O)c1ncn([C@@H]2O[C@H](CO)[C@@H](O)[C@H]2O)n1 [Ribavirin, reference compound]
EC50 [1, 11]: 25 ± 2 µM | EC50 [1, 12]: 24 ± 6 µM | EC50 [2, 13]: 5.4 µM | EC50 [2, 14]: 10 ± 4 µM | CC50 [3]: > 250 µM | EC50 [4, 15]: 24 ± 4 µM | EC50 [4, 16]: 30 ± 6 µM

COC1(C(=O)O)CC(O)C(NC(C)=O)C(C(O)C(O)CO)O1 (stereo not drawn) [methyl β-glycoside]
binding to hemagglutinin (in words) [10]: does not bind at all
